Experimental data as given in patent US20250313574A1, “SIALIC ACID DERIVATIVES AND METHODS OF USING SAME” (EISAI R&D MANAGEMENT CO., LTD., priority 2022, published 2025).
Values joined by “and” are separate entries in the source; they are usually repeats but may differ in a detail not shown here. Equal values may be shown once. Read-outs that look alike come from different tables or passages of the source.

Columns and labels:
[1] = rcm bond, toluene
[2] = molecular target: Recombinant Human Siglec-3/CD33 protein (His-CD33) (Homo sapiens (Human), UniProt P20138); assay: Differential scanning fluorimetry (DSF) thermal shift assay; assay type: binding
Chain of Recombinant Human Siglec-3/CD33 protein (His-CD33) (P20138 18-259): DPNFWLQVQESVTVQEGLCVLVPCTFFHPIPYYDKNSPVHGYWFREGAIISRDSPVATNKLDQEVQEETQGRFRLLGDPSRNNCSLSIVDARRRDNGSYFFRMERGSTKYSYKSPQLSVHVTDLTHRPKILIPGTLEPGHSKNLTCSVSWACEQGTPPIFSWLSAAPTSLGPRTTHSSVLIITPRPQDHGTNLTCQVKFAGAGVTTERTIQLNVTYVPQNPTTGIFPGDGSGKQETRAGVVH

[3] = molecular target: Recombinant human CD33 protein (Homo sapiens (Human), UniProt P20138); assay: CD33 competitive binding assay for HTS drug screen (fluorescent multivalent sialic acid probe)
Chain of Recombinant human CD33 protein (P20138 18-259): as above
Summary of the method: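 Recombinant human CD33, coated overnight at 4° C from 10 μg/ml in pH 5.5 acetate, was preincubated briefly with compound. It was then exposed to a multivalent neutravidin/FITC/sialic acid analog A-375 probe (final 5 μM neutravidin, 15 μM A-375, 5 μM FITC) for 30 min at room temperature. After washing, bound FITC fluorescence was read.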

[4] = molecular target: recombinant human CD33 (Siglec-3, sialic acid binding Ig-like lectin 3) protein (Homo sapiens (Human), UniProt P20138); assay: Differential Scanning Fluorimetry (DSF, Protein Thermal Shift Assay); conditions: 50 μM of A-001; CD33 alone melts at approximately 55° C.
Chain of recombinant human CD33 (Siglec-3, sialic acid binding Ig-like lectin 3) protein (P20138 18-259): as above
Protocol: FIG. 1 depicts thermograms (A) and derivative curves (B) of His-CD33 (gray) and His-CD33 with A-001 (blue).
Differential Scanning Fluorimetry (also known as DSF, Protein Thermal Shift Assay, Thermofluor Assay) was used to measure and compare the thermal melt or thermal denaturation temperature of recombinant human CD33 (Siglec-3, sialic acid binding Ig-like lectin 3) protein in the presence of 50 μM of A-001. In the absence of any compound, the CD33 protein has a thermal melt at approximately 55° C. under the method conditions described in this report.

[5] = difference in thermal melt of CD33 protein (0.5 μM) with 50 μM compound

Row | SMILES | EC50 [3] [µM] | DSF (dTmD) [2, 5] [°C] | other results
1 | CC(=O)O[C@H]1[C@@H]2O[C@](C(=O)OCc3ccccc3)(CC=CCCCCC(=O)NCCCOc3c(C)cc(cc3C)C(=O)NC[C@H]1OC(C)=O)C[C@H](OC(C)=O)[C@H]2NC(=O)OC(C)(C)C | – | – | ring closure, isolated yield ([1]; from C=CCCCCC(=O)NCCCOc1c(C)cc(C(=O)NC[C@@H](OC(C)=O)[C@@H](OC(C)=O)[C@@H]2O[C@@](CC=C)(C(=O)OCc3ccccc3)C[C@H](OC(C)=O)[C@H]2NC(=O)OC(C)(C)C)cc1C, 25-membered ring, Hoveyda-Grubbs II, 2.15 mM, 90.0 °C, 0.58 h): 41%
2 | CC(=O)O[C@H]1[C@@H]2O[C@](C(=O)OCc3ccccc3)(CC=CCOC[C@@H](C)C(=O)NCCCOc3c(C)cc(cc3C)C(=O)NC[C@H]1OC(C)=O)C[C@H](OC(C)=O)[C@H]2NC(=O)OC(C)(C)C | – | – | ring closure, isolated yield ([1]; from C=CCOC[C@@H](C)C(=O)NCCCOc1c(C)cc(C(=O)NC[C@@H](OC(C)=O)[C@@H](OC(C)=O)[C@@H]2O[C@@](CC=C)(C(=O)OCc3ccccc3)C[C@H](OC(C)=O)[C@H]2NC(=O)OC(C)(C)C)cc1C, 25-membered ring, Hoveyda-Grubbs II (10 mol%)/1,4-benzoquinone, 1.52 mM, 80.0 °C, 1.0 h): 47%
3 | COC(=O)[C@]12CC=CCCC[C@@H](NC(=O)C3CCCOC3)c3cccc(c3)COc3c(C)cc(cc3C)C(=O)NC[C@@H](OC(C)=O)[C@@H](OC(C)=O)[C@H](O1)[C@H](NC(=O)OC(C)(C)C)[C@@H](OC(C)=O)C2 (some centres unmarked) | – | – | ring closure, isolated yield ([1]; from C=CCCC[C@@H](NC(=O)C1CCCOC1)c1cccc(COc2c(C)cc(C(=O)NC[C@@H](OC(C)=O)[C@@H](OC(C)=O)[C@@H]3O[C@@](CC=C)(C(=O)OC)C[C@H](OC(C)=O)[C@H]3NC(=O)OC(C)(C)C)cc2C)c1, 24-membered ring, Hoveyda-Grubbs II/quinone, 1.03 mM, 90.0 °C, 24.0 h): 71%
4 | COC(=O)[C@]12CC=CCOC[C@@H](NC(=O)C3CCCOC3)COCCCOc3c(C)cc(cc3C)C(=O)NC[C@@H](OC(C)=O)[C@@H](OC(C)=O)[C@H](O1)[C@H](NC(=O)OC(C)(C)C)[C@@H](OC(C)=O)C2 (some centres unmarked) | – | – | ring closure, isolated yield ([1]; from C=CCOC[C@H](COCCCOc1c(C)cc(C(=O)NC[C@@H](OC(C)=O)[C@@H](OC(C)=O)[C@@H]2O[C@@](CC=C)(C(=O)OC)C[C@H](OC(C)=O)[C@H]2NC(=O)OC(C)(C)C)cc1C)NC(=O)C1CCCOC1, 25-membered ring, Hoveyda-Grubbs II/quinone, 1.04 mM, 90.0 °C, 24.0 h): 76%
5 | COC(=O)[C@]12CC=CCOC[C@@H](NC(=O)C3CCCOC3)COCCOc3c(C)cc(cc3C)C(=O)NC[C@@H](OC(C)=O)[C@@H](OC(C)=O)[C@H](O1)[C@H](NC(=O)OC(C)(C)C)[C@@H](OC(C)=O)C2 (some centres unmarked) | – | – | ring closure, isolated yield ([1]; from C=CCOC[C@H](COCCOc1c(C)cc(C(=O)NC[C@@H](OC(C)=O)[C@@H](OC(C)=O)[C@@H]2O[C@@](CC=C)(C(=O)OC)C[C@H](OC(C)=O)[C@H]2NC(=O)OC(C)(C)C)cc1C)NC(=O)C1CCCOC1, 24-membered ring, Hoveyda-Grubbs II/quinone, 1.05 mM, 80.0 °C, 3.0 h): 60%
6 | COC(=O)[C@]12CC=CCOC[C@@H](NC(=O)OC(C)(C)C)COCCCOc3c(C)cc(cc3C)C(=O)NC[C@@H](OC(C)=O)[C@@H](OC(C)=O)[C@H](O1)[C@H](NC(C)=O)[C@@H](OC(C)=O)C2 | – | – | ring closure, isolated yield ([1]; from C=CCOC[C@H](COCCCOc1c(C)cc(C(=O)NC[C@@H](OC(C)=O)[C@@H](OC(C)=O)[C@@H]2O[C@@](CC=C)(C(=O)OC)C[C@H](OC(C)=O)[C@H]2NC(C)=O)cc1C)NC(=O)OC(C)(C)C, 25-membered ring, Hoveyda-Grubbs II/quinone, 1.12 mM, 100.0 °C, 3.0 h): 84%
7 | COC(=O)[C@]12CC=CCOC[C@H]3C[C@H](CN3C(=O)C3CCCOC3)OCCOc3c(C)cc(cc3C)C(=O)NC[C@@H](OC(C)=O)[C@@H](OC(C)=O)[C@H](O1)[C@H](NC(=O)OC(C)(C)C)[C@@H](OC(C)=O)C2 (some centres unmarked) | – | – | ring closure, isolated yield ([1]; from C=CCOC[C@H]1C[C@@H](OCCOc2c(C)cc(C(=O)NC[C@@H](OC(C)=O)[C@@H](OC(C)=O)[C@@H]3O[C@@](CC=C)(C(=O)OC)C[C@H](OC(C)=O)[C@H]3NC(=O)OC(C)(C)C)cc2C)CN1C(=O)C1CCCOC1, 25-membered ring, Hoveyda-Grubbs II/quinone, 1.03 mM, 90.0 °C, 24.0 h): 64%
8 | COC(=O)[C@]12CC=Cc3cccc(c3)[C@@H](NC(=O)C3CCCOC3)CCCCOc3c(C)cc(cc3C)C(=O)NC[C@@H](OC(C)=O)[C@@H](OC(C)=O)[C@H](O1)[C@H](NC(=O)OC(C)(C)C)[C@@H](OC(C)=O)C2 (some centres unmarked) | – | – | ring closure, isolated yield ([1]; from C=CC[C@]1(C(=O)OC)C[C@H](OC(C)=O)[C@@H](NC(=O)OC(C)(C)C)[C@H]([C@H](OC(C)=O)[C@@H](CNC(=O)c2cc(C)c(OCCCC[C@H](NC(=O)C3CCCOC3)c3cccc(C=C)c3)c(C)c2)OC(C)=O)O1, 24-membered ring, Hoveyda-Grubbs II/quinone, 1.02 mM, 80.0 °C, 1.0 h): 29%
9 | COC(=O)[C@]12CC=Cc3cccc(c3)[C@@H](NC(=O)C3CCCOC3)CCCCc3cc(cc(Cl)c3OC(C)=O)C(=O)NC[C@@H](OC(C)=O)[C@@H](OC(C)=O)[C@H](O1)[C@H](NC(=O)OC(C)(C)C)[C@@H](OC(C)=O)C2 (some centres unmarked) | – | – | ring closure, isolated yield ([1]; from C=CC[C@]1(C(=O)OC)C[C@H](OC(C)=O)[C@@H](NC(=O)OC(C)(C)C)[C@H]([C@H](OC(C)=O)[C@@H](CNC(=O)c2cc(Cl)c(OC(C)=O)c(CCCC[C@H](NC(=O)C3CCCOC3)c3cccc(C=C)c3)c2)OC(C)=O)O1, 22-membered ring, Hoveyda-Grubbs II/quinone, 1.3 mM, 88.0 °C, 0.5 h): 57%; ring closure, isolated yield ([1]; from C=CC[C@]1(C(=O)OC)C[C@H](OC(C)=O)[C@@H](NC(=O)OC(C)(C)C)[C@H]([C@H](OC(C)=O)[C@@H](CNC(=O)c2cc(Cl)c(OC(C)=O)c(CCCC[C@H](NC(=O)C3CCCOC3)c3cccc(C=C)c3)c2)OC(C)=O)O1, Hoveyda-Grubbs II/quinone, 1.3 mM, 88.0 °C, 0.5 h): 16%
10 | CC(=O)N[C@H]1[C@H]([C@H](O)[C@H](O)CNC(=O)c2cc(C)c(O)c(C)c2)O[C@@](CCN2CCOC[C@@]23CCN(C(=O)OC(C)(C)C)C3)(C(=O)O)C[C@@H]1O [A-001] | 0.015 | – | ΔTm D (° C.) ([2]; 50 μM compound, 0.5 μM CD33 protein, pH 7.4, individual determinations): 11.9 °C and 12.9 °C; ΔTm at 50 µM ([2]; 50 μM compound, 0.5 μM CD33 protein, pH 7.4, individual determinations, read-out: ΔTm D (° C.)): 12.2 °C; ΔTm at 50 µM ([2]; 50 μM compound, 0.5 μM CD33 protein, pH 7.4, read-out: Median ΔTm D (° C.)): 12.2 ± 0.7 °C; DSF (dTmD) ([2]; thermal melt shift of 0.5 μM CD33 protein with 50 μM compound): 12.9; increase in thermal melt (dTm D) of CD33 protein [4]: 12.2±0.7 °C
11 | COC(=O)[C@@]1(CCN2CCOC[C@@]23CCN(C(=O)OC(C)(C)C)C3)C[C@H](O)[C@@H](NC(C)=O)[C@H]([C@H](O)[C@H](O)CNC(=O)c2cc(C)c(O)c(C)c2)O1 [A-361] | 49 | −0.3 | –
12 | CC(=O)N[C@H]1[C@H]([C@H](O)[C@H](O)CNC(=O)c2cc(C)c(O)c(C)c2)O[C@](C#N)(CCN2CCOC[C@@]23CCN(C(=O)OC(C)(C)C)C3)C[C@@H]1O [A-362] | > 100 | −0.3 | –
13 | CC(=O)N[C@H]1[C@H]([C@H](O)[C@H](O)CNC(=O)c2cc(C)c(O)c(C)c2)O[C@@](CCN2CCOC[C@@]23CCN(C(=O)OC(C)(C)C)C3)(c2nn[nH]n2)C[C@@H]1O [A-363] | 6.36 | 2.6 | –
14 | CC(=O)N[C@H]1[C@H]([C@H](O)[C@H](O)CNC(=O)c2cc(C)c(O)c(C)c2)O[C@@](CCN2CCOC[C@@]23CCN(C(=O)OC(C)(C)C)C3)(C(N)=O)C[C@@H]1O [A-364] | > 100 | 0.1 | –
15 | CC(=O)N[C@H]1[C@H]([C@H](O)[C@H](O)CNC(=O)c2cc(C)c(O)c(C)c2)O[C@@](CCN2CCOC[C@@]23CCN(C(=O)OC(C)(C)C)C3)(C(=O)NS(C)(=O)=O)C[C@@H]1O [A-365] | 37.5 | −0.3 | –
16 | CC(=O)N[C@H]1[C@H]([C@H](O)[C@H](O)CNC(=O)c2cc(C)c(O)c(C)c2)O[C@@](CCN2CCOC[C@@]23CCN(C(=O)OC(C)(C)C)C3)(C(=O)NC#N)C[C@@H]1O [A-366] | 2.83 | 2.9 | –
17 | CC(=O)N[C@H]1[C@H]([C@H](O)[C@H](O)CNC(=O)c2cc(C)c(O)c(C)c2)O[C@@](CCN2CCOC[C@@]23CCN(C(=O)OC(C)(C)C)C3)(C(=O)NS(=O)(=O)C(F)(F)F)C[C@@H]1O [A-367] | > 100 | 0.1 | –
18 | CC(=O)N[C@H]1[C@H]([C@H](O)[C@H](O)CNC(=O)c2cc(C)c(O)c(C)c2)O[C@@](CCN2CCOC[C@@]23CCN(C(=O)OC(C)(C)C)C3)(C(=O)NS(=O)(=O)c2ccccc2)C[C@@H]1O [A-368] | 15 | −0.1 | –
